Data from patent EP0338372A2, “Solubilized pro-drugs” (AMERICAN CYANAMID COMPANY, priority 1988, dated 1989).

System: lymphocytic leukemia P388
Assay: Lymphocytic leukemia P388 test
Type: in vivo, BDF1 mice
[1] = Dose 3.12 mg/kg intraperitoneally on days 1, 5 and 9
[2] = Dose 6.25 mg/kg intraperitoneally on days 1, 5 and 9
[3] = Dose 12.5 mg/kg intraperitoneally on days 1, 5 and 9
[4] = Dose 25 mg/kg intraperitoneally on days 1, 5 and 9
[5] = Dose 50 mg/kg intraperitoneally on days 1, 5 and 9
[6] = Dose 100 mg/kg intraperitoneally on days 1, 5 and 9
[7] = Dose 200 mg/kg intraperitoneally on days 1, 5 and 9
[8] = Dose 12.25 mg/kg intraperitoneally on days 1, 5 and 9

O=C(c1cccc([N+](=O)[O-])c1)N1CCN=C1N(N=Cc1c2ccccc2c(C=NN(C(=O)c2cccc([N+](=O)[O-])c2)C2=NCCN2C(=O)c2cccc([N+](=O)[O-])c2)c2ccccc12)C(=O)c1cccc([N+](=O)[O-])c1 [2,2'(9,10-Anthracenediyldimethylidyne)bis[1-[4,5-dihydro-1-(3-nitrobenzoyl)-1H-imidazol-2-yl]hydra-zide] of 3-nitrobenzoic acid]
Median Survival [1]: 16 days | T/C x 100 % [1]: 133% | Median Survival [2]: 16 days | T/C x 100 % [2]: 133% | Median Survival [3]: 13.5 days | T/C x 100 % [3]: 113% | Median Survival [4]: 18 days | T/C x 100 % [4]: 150% | Median Survival [5]: 16.5 days | T/C x 100 % [5]: 138% | Median Survival [6]: 18 days | T/C x 100 % [6]: 150% | Median Survival [7]: 21.5 days | T/C x 100 % [7]: 179%

CC(=O)N1CCN=C1N(N=Cc1c2ccccc2c(C=NN(C(C)=O)C2=NCCN2C(C)=O)c2ccccc12)C(C)=O [2,2'-(9,10-Anthracenediyldimethylidyne)bis[1-(1-acetyl-4,5-dihydro-1H-imidazol-2-yl)hydrazide] of acetic acid]
Median Survival [3]: 10.5 days | T/C x 100 % [3]: 105% | Median Survival [5]: 10.5 days | T/C x 100 % [5]: 105% | Median Survival [6]: 11 days | T/C x 100 % [6]: 110%

O=C(c1ccccc1F)N1CCN=C1N(N=Cc1c2ccccc2c(C=NN(C(=O)c2ccccc2F)C2=NCCN2C(=O)c2ccccc2F)c2ccccc12)C(=O)c1ccccc1F [2,2'-(9,10-Anthracenediyldimethylidyne)bis[1-[1-(2-fluorobenzoyl)-4,5-dihydro-1H-imidazol-2-yl] hydrazide] of 2-fluorobenzoic acid]
Median Survival [4]: 12 days | T/C x 100 % [4]: 109% | Median Survival [5]: 13 days | T/C x 100 % [5]: 118% | Median Survival [6]: 13 days | T/C x 100 % [6]: 118% | Median Survival [7]: 12 days | T/C x 100 % [7]: 109%

O=C(c1ccco1)N1CCN=C1N(N=Cc1c2ccccc2c(C=NN(C(=O)c2ccco2)C2=NCCN2C(=O)c2ccco2)c2ccccc12)C(=O)c1ccco1 [2,2'-(9,10-Anthracenediyldimethylidyne)bis[1-[1-(2-furanylcarbonyl)-4,5-dihydro-1H-imidazol-2-yl]hydrazide] of 2-furancarboxylic acid]
Median Survival [7]: 12 days | T/C x 100 % [7]: 120%

CC(C)(C)CC(=O)N1CCN=C1N(N=Cc1c2ccccc2c(C=NN(C(=O)CC(C)(C)C)C2=NCCN2C(=O)CC(C)(C)C)c2ccccc12)C(=O)CC(C)(C)C [2,2'-(9,10-Anthracenediyldimethylidyne)bis[1-[1-(3,3-dimethyl-1-oxobutyl)-4,5-dihydro-1H-imidazol-2-yl]-hydrazide] of 3,3-dimethylbutanoic acid]
Median Survival [6]: 12 days | T/C x 100 % [6]: 109% | Median Survival [7]: 13 days | T/C x 100 % [7]: 118%

N#Cc1ccc(C(=O)N2CCN=C2N(N=Cc2c3ccccc3c(C=NN(C(=O)c3ccc(C#N)cc3)C3=NCCN3C(=O)c3ccc(C#N)cc3)c3ccccc23)C(=O)c2ccc(C#N)cc2)cc1 [2,2'-(9,10-Anthracenediyldimethylidyne)bis[1-[1-(4-cyanobenzoyl)-4,5-dihydro-1H-imidazol-2-yl] hydrazide] of 4-cyanobenzoic acid]
Median Survival [4]: 12 days | T/C x 100 % [4]: 109% | Median Survival [5]: 12.5 days | T/C x 100 % [5]: 114% | Median Survival [6]: 14.5 days | T/C x 100 % [6]: 132% | Median Survival [7]: 14.5 days | T/C x 100 % [7]: 132%

CCCCCCc1ccc(C(=O)N2CCN=C2N(N=Cc2c3ccccc3c(C=NN(C(=O)c3ccc(CCCCCC)cc3)C3=NCCN3C(=O)c3ccc(CCCCCC)cc3)c3ccccc23)C(=O)c2ccc(CCCCCC)cc2)cc1 [2,2'-(9,10-Anthracenediyldimethylidyne)bis[1-[1-(4-hexylbenzoyl)-4,5-dihydro-1H-imidazol-2-yl]hydra-zide] of 4-hexylbenzoic acid]
Median Survival [7]: 14 days | T/C x 100 % [7]: 127%

CCCC(=O)N1CCN=C1N(N=Cc1c2ccccc2c(C=NN(C(=O)CCC)C2=NCCN2C(=O)CCC)c2ccccc12)C(=O)CCC [2,2'-(9,10-Anthracenediyldimethylidyne)bis[1-[4,5-dihydro-1-(1-oxobutyl)-1H-imidazol-2-yl]hydra-zide] of butanoic acid]
Median Survival [7]: 11.5 days | T/C x 100 % [7]: 105%

O=C(c1ccc2ccccc2c1)N1CCN=C1N(N=Cc1c2ccccc2c(C=NN(C(=O)c2ccc3ccccc3c2)C2=NCCN2C(=O)c2ccc3ccccc3c2)c2ccccc12)C(=O)c1ccc2ccccc2c1 [2,2'-(9,10-Anthracenediyldimethylidyne)bis[1-[4,5-dihydro-1-(2-naphthalenylcarbonyl)-1H-imidazol-2-yl]-hydrazide] of 2-naphthoic acid]
Median Survival [6]: 12 days | T/C x 100 % [6]: 104%

COc1ccc(C(=O)N2CCN=C2N(N=Cc2c3ccccc3c(C=NN(C(=O)c3ccc(OC)cc3)C3=NCCN3C(=O)c3ccc(OC)cc3)c3ccccc23)C(=O)c2ccc(OC)cc2)cc1 [2,2'-(9,10-Anthracenediyldimethylidyne)bis[1-[4,5-dihydro-1-(4-methoxybenzoyl)-1H-imidazol-2-yl] hydrazide] of 4-methoxybenzoic acid]
Median Survival [7]: 16 days | T/C x 100 % [7]: 139%

O=C(c1c(F)c(F)c(F)c(F)c1F)N1CCN=C1N(N=Cc1c2ccccc2c(C=NN(C(=O)c2c(F)c(F)c(F)c(F)c2F)C2=NCCN2C(=O)c2c(F)c(F)c(F)c(F)c2F)c2ccccc12)C(=O)c1c(F)c(F)c(F)c(F)c1F [2,2'-(9,10-Anthracenediyldimethylidyne)bis[1-[4,5-dihydro-1-(pentafluoro-1H-imidazol-2-yl)hydra-zide] of pentafluorobenzoic acid]
Median Survival [7]: 12 days | T/C x 100 % [7]: 109%

CC(=O)N1CCN=C1NN=Cc1c2ccccc2c(C=NNC2=NCCN2C(C)=O)c2ccccc12 [2,2'-[9,10-Anthracenediylbis(methylidyne-1-hydrazinyl-2-ylidene)]bis[1-acetyl-4,5-dihydro-1H-imidazole]
Median Survival [2]: 10.5 days | T/C x 100 % [2]: 105% | Median Survival [3]: 10.5 days | T/C x 100 % [3]: 105% | Median Survival [4]: 10.5 days | T/C x 100 % [4]: 105% | Median Survival [5]: 11 days | T/C x 100 % [5]: 110%

O=CN1CCN=C1N(C=O)N=Cc1c2ccccc2c(C=NN(C=O)C2=NCCN2C=O)c2ccccc12 [2,2'-[9,10-Anthracenediylbis[methylidyne(1-formyl-1-hydrazinyl-2-ylidene)]]bis[4,5-dihydro-1H-imidazole-1-carboxaldehyde]]
Median Survival [3]: 10.5 days | T/C x 100 % [3]: 105% | Median Survival [5]: 11 days | T/C x 100 % [5]: 110% | Median Survival [7]: 11.5 days | T/C x 100 % [7]: 115%

CC(C)(C)OC(=O)N1CCN=C1NN=Cc1c2ccccc2c(C=NNC2=NCCN2C(=O)OC(C)(C)C)c2ccccc12 [2,2-(9,10-Anthracenediylbis(methylidyne-1-hydrazinyl-2-ylidene)]bis[4,5-dihydro]-1H-imidazole-1-carboxylic Acid], Bis(1,1-dimethylethyl) Ester]
Median Survival [8]: 17.5 days | T/C x 100 % [8]: 152% | Median Survival [4]: 22 days | T/C x 100 % [4]: 191% | Median Survival [5]: 31.5 days | T/C x 100 % [5]: 274%

COCC(=O)N1CCN=C1N(N=Cc1c2ccccc2c(C=NN(C(=O)COC)C2=NCCN2C(=O)COC)c2ccccc12)C(=O)COC [2,2-(9,10-Anthracenediyldimethylidyne)bis[1-[4,5-dihydro-1-(methoxyacetyl)-1H-imidazo)-2-yl]hydrazide] of Methoxyacetic Acid]
Median Survival [1]: 14.5 days | T/C x 100 % [1]: 132% | Median Survival [3]: 16.5 days | T/C x 100 % [3]: 150% | Median Survival [5]: 16.5 days | T/C x 100 % [5]: 150% | Median Survival [7]: 16.5 days | T/C x 100 % [7]: 150%

Cc1ccc(S(=O)(=O)N2CCN=C2NN=Cc2c3ccccc3c(C=NNC3=NCCN3S(=O)(=O)c3ccc(C)cc3)c3ccccc23)cc1 [2,2-[9,10-Anthracenediylbis(methylidyne-1-hydrazinyl-2-ylidene)]bis[4,5-dihydro-1-[(4-methylphenyl)sulfonyl]-1H-imidazole]]
Median Survival [5]: 14 days | T/C x 100 % [5]: 127% | Median Survival [7]: 14 days | T/C x 100 % [7]: 127%

O=CN1CCN=C1NN=Cc1c2ccccc2c(C=NNC2=NCCN2C=O)c2ccccc12 [2,2-[9,10-Anthracenediylbis(methylidyne-1-hydrazinyl-2-ylidene)]bis[4,5-dihydro]-1H-imidazole-1-carboxaldehyde]
Median Survival [5]: 12 days | T/C x 100 % [5]: 120% | Median Survival [7]: 12 days | T/C x 100 % [7]: 120%

O=C(O)C1CCCCC1C(=O)N1CCN=C1NN=Cc1c2ccccc2c(C=NNC2=NCCN2C(=O)C2CCCCC2C(=O)O)c2ccccc12 (stereo not drawn) [2,2-[9,10-Anthracenediylbis[methylidyne-1-hydrazinyl-2-ylidene(4,5-dihydro-1H-imidazole-2,1-diyl)-carbonyl]]biscyclohexanecarboxylic Acid]
Median Survival [2]: 13.5 days | T/C x 100 % [2]: 123% | Median Survival [3]: 16 days | T/C x 100 % [3]: 145% | Median Survival [4]: 18 days | T/C x 100 % [4]: 164%

O=C(O)CCCC(=O)N1CCN=C1NN=Cc1c2ccccc2c(C=NNC2=NCCN2C(=O)CCCC(=O)O)c2ccccc12 [2,2-[9,10-Anthracenedlylbis(methylidyne-1-hydrazinyl-2-ylidene)]bis[4,5-dihydro-delta-oxo-1H-imidazole-1-pentanoic Acid]]
Median Survival [1]: 15.5 days | T/C x 100 % [1]: 141% | Median Survival [3]: 18 days | T/C x 100 % [3]: 164% | Median Survival [5]: 19 days | T/C x 100 % [5]: 173% | Median Survival [7]: 23 days | T/C x 100 % [7]: 209%
